Where no end group is shown, it is not given here.

What all share (type): cell-based
The subject of assay [1] is excised rabbit lacrimal gland. Kind of assay: Promoting effect on protein secretion from an excised lacrimal gland (1) (Test Example 3). How it is done:
A lacrimal gland was excised from a rabbit and then treated with PACAP27 or peptide 17. Pharmacological effects of PACAP27 and peptide 17 on an increase in the protein secretion amount were examined.
(a) Purified water was added to sodium chloride (137.92 g), potassium chloride (7.01 g), calcium chloride dihydrate (3.53 g) and magnesium chloride hexahydrate (1.2 g) so that the total volume was 1000 mL (solution 1). Purified water was added to potassium dihydrogen phosphate (8.17 g) so that the total volume was 500 mL (solution 2). The solution 1 (50 mL) and the solution 2 (10 mL) were added to 900 mL of purified water, and in the resulting solution were dissolved glucose (2.07 g) and sodium hydrogen carbonate (2.1 g). The total volume of the resulting solution was adjusted to 1000 mL (pH about 7.4), which was used as a culture solution. A mixed gas of 95% oxygen and 5% carbon dioxide was allowed to pass through the culture solution.
(b) PACAP27 or peptide 17 was dissolved in the culture solution at a concentration of 10^−7 M, which was used as a test substance solution. Carbachol (Nacalai Tesque, Inc.), which has muscarinic agonist activity, was dissolved in the culture solution at a concentration of 10^−4 M, which was used as a control of the drugs (the carbachol-addition group). […]
(a) The section sample in a stationary state was incubated at 37° C. for 20 minutes in 0.5 mL of a fresh culture solution. […] The amount of protein in the culture solution was determined by using a protein staining reagent (DC Protein Assay Reagent, Bio Rad), and was converted into the protein secretion amount per 1 mg of the wet sample. […]
(b) The culture solution of the section sample after incubation obtained in (a) was replaced by 0.5 mL of the test substance solution. […] The protein amount in the collected solution was determined by using the protein staining reagent. In the same way, as a control group, the section sample was incubated in the culture solution which was replaced by a fresh culture solution and the protein amount in the culture solution was determined.

For assay [2], the system named is excised rabbit lacrimal gland. Kind of assay: Promoting effect on protein secretion from an excised lacrimal gland (2) (Test Example 5). The conditions noted are these: carbachol 10^−4 M, incubated 60 minutes; p<0.05. The method, then: A lacrimal gland was excised from a rabbit and incubated in a solution containing PACAP27 or peptide 24, and changes in the amount of secreted protein were examined as lacrimal gland stimulating activity.
Japanese white rabbits with a body weight of 1.5 to 2.0 kg purchased from Fukusaki Rabbit warren were used. The animals were each put in separate cages placed in a room wherein a temperature of 23±3° C. and a humidity of 55±10% were kept and a light was on for 12 hours per day (lighting at 8:00 and lights-out at 20:00), and raised after arrival until the final day of the test. The animals were given 100 g of solid feed (Labo R Stock, Nosan Corporation) per day, and could freely have tap water.
PACAP27 and peptide 24 were used as test substances. Test substance solutions were prepared as follows. […]
The section sample in a stationary state was incubated in 0.5 mL of a fresh incubation solution at 37° C. for 20 minutes under a mixed gas atmosphere of 95% oxygen and 5% carbon dioxide. After completion of the incubation, the incubation solution was collected, and the protein amount in the solution was determined by using a protein staining reagent (DC Protein Assay Reagent, Bio Rad). […] The incubation solution was collected, and the protein amount in the incubation solution was determined. […]

For assay [3], the system named is cultured rabbit trigeminal nerve cells. Kind of assay: Promoting effect on neuritogenesis in cultured rabbit trigeminal nerve cells (1) (Test Example 1). The conditions noted are these: final concentration 1 μM, cultured for 48 hours; control group 24.1%; p<0.001 vs non-addition group. An excerpt:
Japanese white rabbits (2 to 3 days old) purchased from Kitayama Labes Co., Ltd. were used.
Rabbit trigeminal nerve cells were isolated according to a method reported by Chan et al. (Kwan Y. Chan and Richard H. Haschke, Exp. Eye Res. 41: 687-699, 1985). The rabbit was subjected to cardiac perfusion with physiological saline under ether anesthesia. A trigeminal ganglion was excised from the rabbit, and then dispersed in a nerve dispersion liquid (Sumitomo Bakelite Co., Ltd.) to prepare trigeminal nerve cells. The trigeminal nerve cells were cultured in Neurobasal medium (Invitrogen Corp) supplemented with B27 Supplement (Invitrogen Corp; final concentration: 2% v/v) and L-glutamine (Invitrogen Corp; final concentration: 1 mM) under 5% CO2 and 95% air at a humidity of 100% and a temperature of 37° C. […]
For evaluating neuritogenesis in the cultured rabbit trigeminal nerve cells, the lengths of the longest neurite and the major axis of the cell body in the stained cell images scanned into the computer were measured using image analysis software (Image-Pro Plus ver. 4.0, Planetron, Inc.) The cells in 3 wells for each group were measured. […] The proportion (%) of the neurite forming cells in the total cell number was calculated (Otori, Y., Wei, J. Y., Barnstable, C. J., Invest. Opthalmol. Vis. Sic., (1998)39, 972-981).

Regarding `C[N+](C)(C)CCOC(N)=O` [carbachol, Carbachol, reference compound], in assay [1] (carbachol 10^−4 M (control of the drugs)), the “protein secretion rate of excised lacrimal gland” value is reported as “significant increase”. For the same compound, the “protein secretion rate of excised lacrimal gland compared with control group” value in assay [2] was “significant increase”.

“His-Ser-Asp-Ala-Ile-Phe-Thr-Asp-Ser-Tyr-Ser-Arg-Tyr-Arg-Arg-Gln-Leu-Ala-Val-Arg-Arg-Tyr-Leu-Ala-Ala-Val-Leu-Gly-Arg-Arg-OH (HSDAIFTDSYSRYRRQLAVRRYLAAVLGRR-OH) [Peptide 17]”: the “proportion (%) of the neurite forming cells in the total cell number” value in assay [3] was found to be 54.1%. Besides, in assay [1] (10^−7 M vs carbachol 10^−4 M), the “duration of the action of the drug compared with the carbachol-addition group” value is on record as “lasted longer”. Further, the “protein secretion rate of excised lacrimal gland” value in assay [1] (10^−7 M, at 20 minutes after initiation of the treatment and thereafter, p<0.05 vs control) is “significantly increased”.
